Experimental findings from patent publication US12673946B2, “Pyrimidin-4(3H)-one derivatives as TRPV4 antagonists” (RaQualia Pharma Inc., priority 2020, dated 2026) are described below.

Each structure is given as a SMILES string.

The target in this assay is T1, human TRPV4 (Homo sapiens, UniProt Q9HBA0).
T1 construct: host or cells: tetracycline-inducible Flp-In T-REx 293 cells
Kind of assay: Hypotonicity-induced Ca2+ influx (Fluo-4, FDSS). Format: cell-based. The method in brief: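 Flp-In T-REx 293 cells with tetracycline-induced human TRPV4, loaded with Fluo-4 for 60 min at 25 °C. Compound added 5 min before hypotonic mannitol/CaCl2 solution. Ca2+ signal recorded for 4.5 min on FDSS.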

Setting [1] is: Flp-In T-REx 293 cells expressing human TRPV4, examples listed under heading 'Human IC50<50 nM'.
Where [2] appears, read: Flp-In T-REx 293 cells stably expressing human TRPV4, compounds listed by potency bin (<10 nM Tables 96-1/96-2, <3 nM Table 97).

T1 sequence (Q9HBA0 whole entry): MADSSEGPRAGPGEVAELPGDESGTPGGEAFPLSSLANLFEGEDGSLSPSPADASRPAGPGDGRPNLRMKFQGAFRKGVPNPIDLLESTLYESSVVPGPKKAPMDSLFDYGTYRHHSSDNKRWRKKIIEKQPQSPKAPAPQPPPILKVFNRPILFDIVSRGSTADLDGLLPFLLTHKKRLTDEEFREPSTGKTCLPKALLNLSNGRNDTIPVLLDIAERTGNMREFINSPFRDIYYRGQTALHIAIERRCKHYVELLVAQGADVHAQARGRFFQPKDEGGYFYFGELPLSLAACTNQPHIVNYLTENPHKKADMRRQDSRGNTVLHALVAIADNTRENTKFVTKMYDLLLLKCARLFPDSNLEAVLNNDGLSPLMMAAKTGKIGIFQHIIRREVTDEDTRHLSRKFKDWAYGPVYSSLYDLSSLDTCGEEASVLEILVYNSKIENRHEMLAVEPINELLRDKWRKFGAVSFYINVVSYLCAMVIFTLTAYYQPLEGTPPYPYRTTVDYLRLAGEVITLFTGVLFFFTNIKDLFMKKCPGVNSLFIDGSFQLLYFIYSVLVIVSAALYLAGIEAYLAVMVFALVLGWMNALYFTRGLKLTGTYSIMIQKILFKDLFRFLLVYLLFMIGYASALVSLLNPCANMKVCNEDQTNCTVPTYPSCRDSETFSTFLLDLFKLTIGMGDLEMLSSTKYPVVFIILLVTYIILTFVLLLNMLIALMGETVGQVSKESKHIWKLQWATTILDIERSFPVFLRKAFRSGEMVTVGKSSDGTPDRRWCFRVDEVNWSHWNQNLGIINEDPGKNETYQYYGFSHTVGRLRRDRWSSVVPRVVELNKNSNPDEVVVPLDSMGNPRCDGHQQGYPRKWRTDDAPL

In the case of `COc1cccc(C2(c3nc4c(c(=O)[nH]3)CN(C(=O)[C@H](O)c3cccc(C(F)(F)F)c3)CCC4)CC2)c1` [17-54], the IC50 (commonly the concentration at which inhibition is half-maximal) under setting [1] is under 50 nM.

Under setting [1], `O=C(C(O)c1cccc(Br)c1)N1CCCc2nc(C3(c4ccccc4)CC3)[nH]c(=O)c2C1` (centres unmarked) [17-55] showed an IC50 of under 50 nM.

The compound `Cc1cccc(C(O)C(=O)N2CCCc3nc(C4(c5ccccc5)CC4)[nH]c(=O)c3C2)c1F` (centres unmarked) [17-56] registered an IC50 under setting [1] of under 50 nM.

On to `O=C([C@H](O)c1cccc(Cl)c1)N1CCCc2nc(C3(c4cccc(F)c4)CC3)[nH]c(=O)c2C1` [17-57], for which, under setting [1], the IC50 was under 50 nM.

For `O=C(C(O)c1cccc(C2CC2)c1)N1CCCc2nc(C3(c4ccccc4)CC3)[nH]c(=O)c2C1` (centres unmarked) [17-58], the IC50 under setting [1] is under 50 nM.

Compound `CC(C)c1cccc(C(O)C(=O)N2CCCc3nc(C4(c5ccccc5)CC4)[nH]c(=O)c3C2)c1` (centres unmarked) [17-59] registered an IC50 under setting [1] of under 50 nM.

For `O=C([C@H](O)c1cccc(F)c1F)N1CCCc2nc(C3(c4cccc(F)c4)CC3)[nH]c(=O)c2C1` [17-60], the concentration for half-maximal inhibition (IC50) under setting [1] was under 50 nM.

Under setting [1], `O=C(C(O)c1cc(Cl)cc(Cl)c1)N1CCCc2nc(C3(c4ccccc4)CC3)[nH]c(=O)c2C1` (centres unmarked) [17-61] came in with an IC50 of under 50 nM.

For `O=C([C@H](O)c1cccc(C(F)(F)F)c1)N1CCCc2nc(C3(c4cccc(Oc5ccccc5)c4)CC3)[nH]c(=O)c2C1` [17-72], the IC50 by setting is: under setting [1], under 50 nM; under setting [2], under 10 nM.

In turn, `O=C([C@H](O)c1cccc(Cl)c1)N1CCCc2nc(C3(c4cccc(Oc5ccccc5)c4)CC3)[nH]c(=O)c2C1` [17-73] gave an IC50 under setting [1] of under 50 nM and an IC50 under setting [2] of under 3 nM.

Take `O=C(C(O)c1cccc(-c2cccc(C(F)(F)F)c2)c1)N1CCCc2c(nc(C3(c4ccccc4)CC3)[nH]c2=O)C1` (centres unmarked) [17-74]: the IC50 is, setting by setting: under setting [1], under 50 nM; under setting [2], under 10 nM.

Take `O=C(C(O)c1cccc(Oc2cccc(C(F)(F)F)c2)c1)N1CCCc2nc(C3(c4ccccc4)CC3)[nH]c(=O)c2C1` (centres unmarked) [17-75]: the IC50 runs as follows: under setting [1], under 50 nM; under setting [2], under 3 nM.

In the case of `O=C(C(O)c1cccc(OCc2ccccc2)c1)N1CCCc2nc(C3(c4ccccc4)CC3)[nH]c(=O)c2C1` (centres unmarked) [17-76], the IC50 by setting is: under setting [1], under 50 nM; under setting [2], under 10 nM.

With `O=C([C@H](O)c1cccc(Br)c1)N1CCCc2nc(C3(c4ccccc4)CC3)[nH]c(=O)c2C1` [17-77], the IC50 by setting is: under setting [1], under 50 nM; under setting [2], under 10 nM.

`O=C(Cc1ccccc1-c1ccccc1)N1CCCc2nc(C3(c4cccc(Cl)c4)CC3)[nH]c(=O)c2C1` [17-80] returned an IC50 under setting [1] of under 50 nM.

In the case of `O=C(C(O)c1cccc(Cl)c1F)N1CCCc2nc(C3(c4cccc(Oc5ccccc5)c4)CC3)[nH]c(=O)c2C1` (centres unmarked) [17-81], the IC50 by setting is: under setting [1], under 50 nM; under setting [2], under 10 nM.

As for `O=C(Cc1ccccc1OCc1ccccc1)N1CCCc2nc(C3(c4cccc(Cl)c4)CC3)[nH]c(=O)c2C1` [17-82], the IC50 by setting is: under setting [1], under 50 nM; under setting [2], under 10 nM.

For `O=C(Cc1cccc(-c2ccccc2)c1)N1CCCc2nc(C3(c4cccc(Cl)c4)CC3)[nH]c(=O)c2C1` [17-84], the IC50 is, setting by setting: under setting [1], under 50 nM; under setting [2], under 10 nM.

Compound `O=C(C(O)c1cccc(Oc2ccccc2)c1)N1CCCc2nc(C3(c4ccccc4)CC3)[nH]c(=O)c2C1` (centres unmarked) [17-85] had an IC50 under setting [1] of under 50 nM.

For the compound `O=C([C@H](O)c1cccc(Cl)c1)N1CCCc2nc(C3(c4cccc(Br)c4)CC3)[nH]c(=O)c2C1` [17-87], the IC50 is, setting by setting: under setting [1], under 50 nM; under setting [2], under 10 nM.

Turning to `CC(C(=O)N1CCCc2nc(C3(c4cccc(Cl)c4)CC3)[nH]c(=O)c2C1)c1cccc(C(F)(F)F)c1` (centres unmarked) [17-88], the IC50 was under 50 nM under setting [1] and under 10 nM under setting [2].

Regarding `CC(C(=O)N1CCCc2nc(C3(c4cccc(F)c4)CC3)[nH]c(=O)c2C1)c1cccc(C(F)(F)F)c1` (centres unmarked) [17-89], the IC50 is, setting by setting: under setting [1], under 50 nM; under setting [2], under 10 nM.

In the case of `O=C([C@H](O)c1cccc(C(F)(F)F)c1)N1CCCc2nc(C3(c4cccc(OCc5ccccc5)c4)CC3)[nH]c(=O)c2C1` [17-90], the IC50 is under 50 nM under setting [1] and under 10 nM under setting [2].

As for `O=C([C@H](O)c1cccc(Cl)c1)N1CCCc2nc(C3(c4cccc(OCc5ccccc5)c4)CC3)[nH]c(=O)c2C1` [17-91], the IC50 runs as follows: under setting [1], under 50 nM; under setting [2], under 3 nM.

Take `O=C([C@@H](O)c1cccc(C(F)(F)F)c1)N1CCCc2nc(C3(c4cccc(Cl)c4)CC3)[nH]c(=O)c2C1` [17-93]: the IC50 under setting [1] is under 50 nM.

In the case of `O=C([C@H](O)c1cccc(C(F)(F)F)c1)N1CCCc2nc(C3(c4cccc(-c5ccc6ncsc6c5)c4)CC3)[nH]c(=O)c2C1` [17-94], the IC50 was under 50 nM under setting [1] and under 10 nM under setting [2].

Regarding `O=C([C@H](O)c1cccc(C(F)(F)F)c1)N1CCCc2nc(C3(c4cccc(-c5cnc(-c6ccccc6)o5)c4)CC3)[nH]c(=O)c2C1` [17-95], the IC50 runs as follows: under setting [1], under 50 nM; under setting [2], under 10 nM.

For the compound `O=C([C@H](O)c1cccc(C(F)(F)F)c1)N1CCCc2nc(C3(c4cccc(-c5ccc6sccc6c5)c4)CC3)[nH]c(=O)c2C1` [17-96], the IC50 by setting is: under setting [1], under 50 nM; under setting [2], under 10 nM.

Regarding `O=C([C@H](O)c1cccc(C(F)(F)F)c1)N1CCCc2nc(C3(c4cccc(-c5nc6ccccc6s5)c4)CC3)[nH]c(=O)c2C1` [17-97], the IC50 by setting is: under setting [1], under 50 nM; under setting [2], under 10 nM.

For `O=C([C@H](O)c1cccc(C(F)(F)F)c1)N1CCCc2nc(C3(c4cccc(-c5cnc(-c6ccccc6)s5)c4)CC3)[nH]c(=O)c2C1` [17-98], the half-inhibitory concentration (IC50) is, setting by setting: under setting [1], under 50 nM; under setting [2], under 3 nM.

Turning to `O=C(Cc1cccc(-c2cccc(C(F)(F)F)c2)c1)N1CCCc2nc(C3(c4cccc(Cl)c4)CC3)[nH]c(=O)c2C1` [17-99], the IC50 is, setting by setting: under setting [1], under 50 nM; under setting [2], under 10 nM.

`O=C(Cc1cccc(-c2cccc(Cl)c2)c1)N1CCCc2nc(C3(c4cccc(Cl)c4)CC3)[nH]c(=O)c2C1` [17-100] showed an IC50 under setting [1] of under 50 nM and an IC50 under setting [2] of under 3 nM.

`O=C(COc1ccc(-c2ccccc2)cc1)N1CCCc2nc(C3(c4cccc(Cl)c4)CC3)[nH]c(=O)c2C1` [17-102] yielded an IC50 under setting [1] of under 50 nM.

As to `O=C(COc1cccc(-c2ccccc2)c1)N1CCCc2nc(C3(c4cccc(Cl)c4)CC3)[nH]c(=O)c2C1` [17-105], the IC50 under setting [1] was under 50 nM.

For the compound `O=C(Cc1cccc(-c2cccc(C(F)(F)F)c2)c1)N1CCCc2c(nc(C3(c4ccccc4)CC3)[nH]c2=O)C1` [17-109], under setting [1], the IC50 is under 50 nM.

Take `O=C(Cc1cccc(C(F)(F)F)c1)N1CCCc2nc(C3(c4cccc(Cl)c4)CC3)[nH]c(=O)c2C1` [17-110]: the IC50 runs as follows: under setting [1], under 50 nM; under setting [2], under 10 nM.

In the case of `O=C(Cc1cccc(C(F)(F)F)c1F)N1CCCc2nc(C3(c4cccc(Cl)c4)CC3)[nH]c(=O)c2C1` [17-111], the 50% inhibitory concentration (IC50) by setting is: under setting [1], under 50 nM; under setting [2], under 10 nM.

With `O=C(Cc1cccc(OC(F)(F)F)c1)N1CCCc2nc(C3(c4cccc(Cl)c4)CC3)[nH]c(=O)c2C1` [17-112], under setting [1], the IC50 was under 50 nM.

Compound `O=C(Cc1cccc(SC(F)(F)F)c1)N1CCCc2nc(C3(c4cccc(Cl)c4)CC3)[nH]c(=O)c2C1` [17-113] had an IC50 under setting [1] of under 50 nM and an IC50 under setting [2] of under 10 nM.

For the compound `O=C(Cc1cccc(S(F)(F)(F)(F)F)c1)N1CCCc2nc(C3(c4cccc(Cl)c4)CC3)[nH]c(=O)c2C1` [17-114], the IC50 under setting [1] was under 50 nM and the IC50 under setting [2] was under 10 nM.

Under setting [1], `O=C(Cc1ccc2ccccc2c1)N1CCCc2nc(C3(c4cccc(Cl)c4)CC3)[nH]c(=O)c2C1` [17-115] registered an IC50 of under 50 nM.

Regarding `O=C(Cc1cccc(C2CC2)c1)N1CCCc2nc(C3(c4cccc(Cl)c4)CC3)[nH]c(=O)c2C1` [17-116], the IC50 is under 50 nM under setting [1] and under 10 nM under setting [2].

Take `O=C(/C=C/c1cccc(C(F)(F)F)c1)N1CCCc2nc(C3(c4cccc(Cl)c4)CC3)[nH]c(=O)c2C1` [17-117]: the IC50 by setting is: under setting [1], under 50 nM; under setting [2], under 10 nM.

Take `O=C(Cc1cccc(-c2coc3ccccc23)c1)N1CCCc2nc(C3(c4cccc(Cl)c4)CC3)[nH]c(=O)c2C1` [17-118]: the IC50 was under 50 nM under setting [1] and under 10 nM under setting [2].

Regarding `N#Cc1cc(Cl)cc(-c2cccc(CC(=O)N3CCCc4nc(C5(c6cccc(Cl)c6)CC5)[nH]c(=O)c4C3)c2)c1` [17-119], the IC50 reads like this: under setting [1], under 50 nM; under setting [2], under 3 nM.

In turn, `O=C(Cc1cccc2ccccc12)N1CCCc2nc(C3(c4cccc(Cl)c4)CC3)[nH]c(=O)c2C1` [17-120] gave an IC50 under setting [1] of under 50 nM and an IC50 under setting [2] of under 10 nM.

`O=C(CCc1cccc(C(F)(F)F)c1)N1CCCc2nc(C3(c4cccc(Cl)c4)CC3)[nH]c(=O)c2C1` [17-121] registered an IC50 under setting [1] of under 50 nM.

Take `O=C(Cc1cccc(OCc2ccccc2)c1)N1CCCc2nc(C3(c4cccc(Cl)c4)CC3)[nH]c(=O)c2C1` [17-122]: the concentration for half-maximal inhibition (IC50) was under 50 nM under setting [1] and under 10 nM under setting [2].

On to `O=C(Cc1cccc(-c2cccc(Cl)c2)c1)N1CCCc2nc(C3(c4cccc(-c5csc6ccccc56)c4)CC3)[nH]c(=O)c2C1` [17-123], for which the IC50 is under 50 nM under setting [1] and under 10 nM under setting [2].

With `O=C([C@H](O)c1cccc(Br)c1)N1CCCc2nc(C3(c4cccc(-c5csc6ccccc56)c4)CC3)[nH]c(=O)c2C1` [17-124], the IC50 under setting [1] was under 50 nM and the IC50 under setting [2] is under 10 nM.

With `O=C(Cc1cccc(-c2cccc(C(F)(F)F)c2)c1)N1CCCc2nc(C3(c4cccc(-c5csc6ccccc56)c4)CC3)[nH]c(=O)c2C1` [17-125], the IC50 by setting is: under setting [1], under 50 nM; under setting [2], under 10 nM.

Take `N#Cc1ccc(-c2cccc(CC(=O)N3CCCc4nc(C5(c6cccc(Cl)c6)CC5)[nH]c(=O)c4C3)c2)cc1` [17-126]: the IC50 by setting is: under setting [1], under 50 nM; under setting [2], under 10 nM.

Turning to `CC(C)(C)c1ccc(-c2cccc(CC(=O)N3CCCc4nc(C5(c6cccc(Cl)c6)CC5)[nH]c(=O)c4C3)c2)cc1` [17-127], the IC50 reads like this: under setting [1], under 50 nM; under setting [2], under 10 nM.
